Square brackets hold non-standard residues; d marks the D form. Peptide text beside a SMILES is read from it. Phe(2,6-Me2,4-CONH2) = Cc1cc(C(N)=O)cc(C)c1C[C@H](N)C(=O)O; Dmt = Cc1cc(O)cc(C)c1C[C@H](N)C(=O)O; dTic = O=C(O)[C@H]1Cc2ccccc2CN1; β3hF = N[C@H](CC(=O)O)Cc1ccccc1; dNMeA = CN[C@H](C)C(=O)O; Sar = CNCC(=O)O
Legend:
μ-opioid receptor (MOR) = molecular target: T1, μ-opioid receptor (MOR) (Homo sapiens, UniProt P35372); assay: MOR agonist cAMP assay (HitHunter cAMP, forskolin-stimulated); assay type: cell-based
T1 construct: host or cells: cAMP Hunter CHO-K1 OPRM1 Gαi cell line
T1 sequence (P35372 whole entry): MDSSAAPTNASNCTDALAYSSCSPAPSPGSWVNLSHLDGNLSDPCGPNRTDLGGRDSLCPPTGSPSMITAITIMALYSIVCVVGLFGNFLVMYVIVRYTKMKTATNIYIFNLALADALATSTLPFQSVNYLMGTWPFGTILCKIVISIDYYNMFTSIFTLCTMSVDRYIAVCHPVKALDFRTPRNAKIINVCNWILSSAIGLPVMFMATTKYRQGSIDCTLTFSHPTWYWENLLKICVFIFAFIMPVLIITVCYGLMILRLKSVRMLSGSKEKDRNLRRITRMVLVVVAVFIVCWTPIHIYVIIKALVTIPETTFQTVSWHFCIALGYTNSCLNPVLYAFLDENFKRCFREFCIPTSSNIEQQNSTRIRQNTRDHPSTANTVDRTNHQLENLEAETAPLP
Description: (§1) The HitHunter® cAMP chemiluminescent assay kit (DiscoveRx, Cat# 90-0075 SM25) was used to detect cAMP production in cAMP Hunter™ Gαi cell lines over expressing either Human-ORPM1 (Discoverx, Catalog# 95-0107C2) or Human-ORPD1 (DiscoveRx, Catalog# 95-0108C2). Opioid agonist binding to the Gαi receptors inhibits the intracellular cAMP accumulation induced by forskolin, which activates adenylate cyclase and increases intracellular levels of cAMP.
(§2) Cells were cultured in media consisting of Ham's F-12 Nutrient Mix (Life Technologies, Catalog#31765035), 10% FBS (Life Technologies, Catalog# 16140-071), 4 mM GlutaMAX (Life Technologies, Catalog#35050-061), […] (Life Technologies), 100 ug/ml of Penn-Strep (Life Technologies) and 0.5 mg/ml Geneticin (Life Technologies, Catalog# 10131-027). The cultures were maintained at 37° C. under 5% CO2.
(§3) In preparation for cAMP assay, the cells were seeded at a density of 300,000 cells/ml in 100 ul of media/well in 96-well microplate. Wells that were designated for cAMP standards were left empty.
(§4) Opioid agonist serial dilutions were prepared in separate dilution plate (11-point series of 3× (3-fold) dilution) in Cell Assay buffer, including 3× forskolin for Gαi target. For Hunter CHO-K1 OPRM1 or CHO-K1 OPRD1 Gαi Cell Lines, the final forskolin concentration was 20 uM.
(§5) 15 ul of each 3× opioid agonist serial dilution was added in the presence of forskolin in duplicate to the designated wells. The final concentration of each dilution was at 3× of the final screening concentration. The assay plate was incubated for 30 min, at 37° C. under 5% CO2.
(§6) Cellular cAMP concentrations were measured using the HitHunter cAMP Assay kit following the manufacturer's protocol. HitHunter cAMP assay is a gain-of-signal competitive immunoassay based on Enzyme Fragment Complementation (EFC) technology. The kit uses β-galactosidase (β-gal) enzyme split into Enzyme Donor (ED) and Enzyme Acceptor (EA). The cellular cAMP and ED-labelled cAMP compete for anti-cAMP antibody. […] When cellular cAMP level is high, it competes for the anti-cAMP antibody, thereby releasing ED-cAMP to complement with EA to produce a luminescent signal. The amount of signal is directly proportional to the amount of cAMP in cells and can be quantified using cAMP standards. The assay plates were read using a PerkinElmer Envision instrument to detect the chemiluminescence signal in each well (luminescence reader at 0.1 to 1 second/well). Data analysis was performed using Graphpad Prism 7.EC50 was calculated by nonlinear regression, using the four-parameter hill equation.

δ-opioid receptor (DOR) = molecular target: T2, δ-opioid receptor (DOR) (Homo sapiens, UniProt P41143); assay: DOR agonist cAMP assay (HitHunter cAMP, forskolin-stimulated); assay type: cell-based
T2 construct: host or cells: cAMP Hunter CHO-K1 OPRD1 Gαi cell line
T2 sequence (P41143 whole entry): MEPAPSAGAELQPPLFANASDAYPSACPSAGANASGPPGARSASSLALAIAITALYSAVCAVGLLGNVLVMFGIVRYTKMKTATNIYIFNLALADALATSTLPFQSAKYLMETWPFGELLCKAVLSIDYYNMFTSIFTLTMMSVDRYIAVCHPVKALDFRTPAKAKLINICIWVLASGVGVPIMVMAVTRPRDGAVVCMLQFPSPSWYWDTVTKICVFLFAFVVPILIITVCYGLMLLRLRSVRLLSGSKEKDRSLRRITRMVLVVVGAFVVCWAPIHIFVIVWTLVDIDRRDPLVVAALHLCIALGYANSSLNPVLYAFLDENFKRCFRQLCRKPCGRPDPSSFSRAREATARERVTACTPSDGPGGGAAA
Description: as §1, §2, §3, §4, §5, §6

Row | SMILES | EC50 (μ-opioid receptor (MOR)) | EC50 (δ-opioid receptor (DOR))
1 | Cc1cc(O)cc(C)c1C[C@H](N)C(=O)N[C@H](CC(=O)O)C(=O)NCC(=O)N[C@H](CC(=O)N(C)[C@@H](Cc1c[nH]c2ccccc12)C(=O)O)Cc1ccccc1 [compound 171] | < 1 nM | < 1 nM
2 | CC[C@H](C)[C@@H](C(=O)O)N(C)C(=O)C[C@H](Cc1ccccc1)NC(=O)CNC(=O)[C@H](NC(=O)[C@@H](N)Cc1c(C)cc(O)cc1C)[C@H](C)O [compound 182] | < 1 nM | < 1 nM
3 | Cc1cc(O)cc(C)c1C[C@H](N)C(=O)N[C@H](C)C(=O)NCC(=O)N[C@H](CC(=O)N[C@@H](Cc1ccc2ccccc2c1)C(N)=O)Cc1ccccc1 [compound 114] | 1 to 10 nM | 1 to 10 nM
4 | Cc1cc(O)cc(C)c1C[C@H](N)C(=O)N[C@H](C)C(=O)NCC(=O)N[C@H](CC(=O)N(CC(N)=O)CC(F)(F)F)Cc1ccccc1 [compound 122] | < 1 nM | < 1 nM
5 | Cc1cc(O)cc(C)c1C[C@H](N)C(=O)N[C@H](C)C(=O)NCC(=O)N[C@H](CC(=O)N(C)[C@@H](Cc1ccccc1)C(=O)O)Cc1ccccc1 [compound 158] | < 1 nM | < 1 nM
6 | CCCCCCCCCCCCCCCCN(CC(N)=O)C(=O)C[C@H](Cc1ccccc1)NC(=O)CNC(=O)[C@@H](C)NC(=O)[C@@H](N)Cc1c(C)cc(O)cc1C [compound 125] | 1 to 10 nM | 1 to 10 nM
7 | CCC[C@@H](C(=O)O)N(C)C(=O)C[C@H](Cc1ccccc1)NC(=O)CNC(=O)[C@@H](C)NC(=O)[C@@H](N)Cc1c(C)cc(C(N)=O)cc1C [compound 97] | < 1 nM | < 1 nM
8 | Cc1cc(O)cc(C)c1C[C@H](N)C(=O)N[C@H](CC(=O)O)C(=O)NCC(=O)N[C@H](CC(=O)N(C)[C@@H](C)C(=O)O)Cc1ccccc1 [compound 170] | < 1 nM | < 1 nM
9 | CCCC[C@@H](C(=O)O)N(C)C(=O)C[C@H](Cc1ccc(O)cc1)NC(=O)CNC(=O)[C@@H](C)NC(=O)[C@@H](N)Cc1c(C)cc(C(N)=O)cc1C [compound 168] | 1 to 10 nM | < 1 nM
10 | Cc1cc(O)cc(C)c1C[C@H](N)C(=O)N1Cc2ccccc2C[C@@H]1C(=O)NCC(=O)N[C@@H](Cc1ccccc1)C(=O)N(C)CC(N)=O [compound 45] (H-[Dmt][dTic]GF[Sar]-NH2) | < 1 nM | < 1 nM
11 | CCCC[C@@H](C(=O)O)N(C)C(=O)C[C@H](Cc1cccc(F)c1)NC(=O)CNC(=O)[C@@H](C)NC(=O)[C@@H](N)Cc1c(C)cc(O)cc1C [compound 144] | < 1 nM | < 1 nM
12 | CCCC[C@@H](C(=O)O)N(C)C(=O)C[C@H](Cc1c[nH]c2ccccc12)NC(=O)CNC(=O)[C@@H](C)NC(=O)[C@@H](N)Cc1c(C)cc(C(N)=O)cc1C [compound 139] | < 1 nM | 1 to 10 nM
13 | CCC[C@@H](C(N)=O)N(C)C(=O)C[C@H](Cc1ccccc1)NC(=O)CNC(=O)[C@@H](C)NC(=O)[C@@H](N)Cc1c(C)cc(O)cc1C [compound 184] | < 1 nM | < 1 nM
14 | Cc1cc(O)cc(C)c1C[C@H](N)C(=O)N[C@H](CC(=O)O)C(=O)NCC(=O)N[C@H](CC(=O)N(C)[C@@H](Cc1ccccc1)C(=O)O)Cc1ccccc1 [compound 177] | < 1 nM | < 1 nM
15 | C[C@@H](NC(=O)[C@@H](N)Cc1ccc(C(N)=O)cc1)C(=O)NCC(=O)N[C@H](CC(=O)N(C)CC(N)=O)Cc1ccccc1 [compound 60] | 1 to 10 nM | 1 to 10 nM
16 | Cc1cc(C(N)=O)cc(C)c1C[C@H](N)C(=O)NCC(=O)NCC(=O)N[C@H](CC(=O)N(C)CC(N)=O)Cc1ccccc1 [compound 74] (H-[Phe(2,6-Me2,4-CONH2)]GG[β3hF][Sar]-NH2) | < 1 nM | < 1 nM
17 | CC(=O)Nc1ccc(C[C@H](N)C(=O)N[C@H](C)C(=O)NCC(=O)N[C@H](CC(=O)N(C)CC(N)=O)Cc2ccccc2)cc1 [compound 59] | 10 to 50 nM | 50 to 200 nM

Row | SMILES | EC50 (μ-opioid receptor (MOR)) | EC50 (δ-opioid receptor (DOR))
18 | Cc1cc(C(N)=O)cc(C)c1C[C@H](N)C(=O)N[C@H](C)C(=O)NCC(=O)N[C@H](CC(=O)NCC(N)=O)Cc1ccccc1 [compound 94] | < 1 nM | 1 to 10 nM
19 | CCCC[C@@H](C(=O)O)N(C)C(=O)C[C@H](Cc1cccc(C)c1)NC(=O)CNC(=O)[C@@H](C)NC(=O)[C@@H](N)Cc1c(C)cc(O)cc1C [compound 141] | < 1 nM | < 1 nM
20 | Cc1cc(C(N)=O)cc(C)c1C[C@H](N)C(=O)NC(C)(C)C(=O)NCC(=O)N[C@H](CC(=O)N(C)CC(N)=O)Cc1ccccc1 [compound 75] | < 1 nM | 10 to 50 nM
21 | CCCC[C@@H](C(=O)O)N(C)C(=O)C[C@H](Cc1cccc(C)c1)NC(=O)CNC(=O)[C@@H](C)NC(=O)[C@@H](N)Cc1c(C)cc(C(N)=O)cc1C [compound 164] | < 1 nM | < 1 nM
22 | C[C@@H](NC(=O)[C@@H](N)Cc1ccc(C(=O)O)cc1)C(=O)NCC(=O)N[C@H](CC(=O)N(C)CC(N)=O)Cc1ccccc1 [compound 89] | 50 to 200 nM | 50 to 200 nM
23 | Cc1cc(O)cc(C)c1C[C@H](N)C(=O)N[C@H](CC(=O)O)C(=O)NCC(=O)N[C@H](CC(=O)N(C)[C@H](C(=O)O)c1ccccc1)Cc1ccccc1 [compound 176] | < 1 nM | < 1 nM
24 | CC[C@H](C)[C@@H](C(=O)O)N(C)C(=O)C[C@H](Cc1ccccc1)NC(=O)CNC(=O)[C@@H](C)NC(=O)[C@@H](N)Cc1c(C)cc(O)cc1C [compound 113] | < 1 nM | < 1 nM
25 | Cc1cc(O)cc(C)c1C[C@H](N)C(=O)N[C@H](CC(=O)O)C(=O)NCC(=O)N[C@H](CC(=O)N(C)[C@H](C(=O)O)C(C)C)Cc1ccccc1 [compound 173] | < 1 nM | < 1 nM
26 | Cc1cc(O)cc(C)c1C[C@H](N)C(=O)N(C)[C@H](C)C(=O)N[C@@H](Cc1ccccc1)C(=O)N(C)CC(N)=O [compound 10] (H-[Dmt][dNMeA]F[Sar]-NH2) | < 1 nM | 1 to 10 nM
27 | CCCC[C@@H](C(=O)O)N(C)C(=O)C[C@H](Cc1ccc(O)cc1)NC(=O)CNC(=O)[C@@H](C)NC(=O)[C@@H](N)Cc1c(C)cc(O)cc1C [compound 152] | < 1 nM | < 1 nM
28 | CCCC[C@@H](C(=O)O)N(C)C(=O)C[C@H](Cc1ccc(F)cc1)NC(=O)CNC(=O)[C@@H](C)NC(=O)[C@@H](N)Cc1c(C)cc(O)cc1C [compound 145] | < 1 nM | < 1 nM
29 | CCCC[C@@H](C(=O)O)N(C)C(=O)C[C@H](Cc1cccc(Cl)c1)NC(=O)CNC(=O)[C@@H](C)NC(=O)[C@@H](N)Cc1c(C)cc(O)cc1C [compound 151] | < 1 nM | < 1 nM
30 | Cc1cc(C(N)=O)cc(C)c1C[C@H](N)C(=O)N[C@H](C)C(=O)NCC(=O)N[C@H](CC(=O)N(C)[C@@H](Cc1ccccc1)C(=O)O)Cc1ccccc1 [compound 100] | 1 to 10 nM | 1 to 10 nM
31 | Cc1cc(O)cc(C)c1C[C@H](N)C(=O)N[C@H](CC(=O)O)C(=O)NCC(=O)N[C@H](CC(=O)N(C)[C@@H](Cc1ccc(O)cc1)C(=O)O)Cc1ccccc1 [compound 180] | < 1 nM | < 1 nM
32 | CCC[C@@H](C(=O)O)N(C)C(=O)C[C@H](Cc1ccccc1)NC(=O)CNC(=O)[C@@H](C)NC(=O)[C@@H](N)Cc1c(C)cc(O)cc1C [compound 162] | < 1 nM | < 1 nM
33 | Cc1cc(C(N)=O)cc(C)c1C[C@H](N)C(=O)N[C@@H](C)C(=O)NCC(=O)N[C@H](CC(=O)N(C)CC(=O)O)Cc1ccccc1 [compound 80] | 1 to 10 nM | 50 to 200 nM

Reference: patent US10278957B2, “Opioid agonist peptides and uses thereof” (Protagonist Therapeutics, Inc., priority 2017, dated 2019)
